pIC50: −log10 of the molar value.
Target: T1, FBXO21 (Homo sapiens, UniProt O94952)
T1 sequence (O94952 1-628): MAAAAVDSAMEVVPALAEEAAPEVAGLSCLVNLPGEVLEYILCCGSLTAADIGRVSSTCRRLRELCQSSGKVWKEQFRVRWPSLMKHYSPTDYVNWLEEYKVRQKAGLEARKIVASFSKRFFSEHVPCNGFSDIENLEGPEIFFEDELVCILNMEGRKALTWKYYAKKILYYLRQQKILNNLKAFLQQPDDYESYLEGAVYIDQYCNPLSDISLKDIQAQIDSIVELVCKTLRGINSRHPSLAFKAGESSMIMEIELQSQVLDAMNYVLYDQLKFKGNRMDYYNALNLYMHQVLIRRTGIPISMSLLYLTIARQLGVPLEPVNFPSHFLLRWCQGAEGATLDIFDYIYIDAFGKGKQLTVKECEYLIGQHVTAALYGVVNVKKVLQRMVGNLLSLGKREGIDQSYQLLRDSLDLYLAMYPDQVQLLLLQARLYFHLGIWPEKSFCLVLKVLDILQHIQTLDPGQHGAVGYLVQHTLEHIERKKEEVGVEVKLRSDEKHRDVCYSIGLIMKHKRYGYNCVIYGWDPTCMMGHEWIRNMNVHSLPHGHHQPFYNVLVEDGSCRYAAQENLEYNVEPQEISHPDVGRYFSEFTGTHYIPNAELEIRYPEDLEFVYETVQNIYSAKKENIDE
Test: in vitro ubiquitination of GFP-p85α, Western blot
Type: biochemical

**Q.** With `O=C(O)Cc1cc(-c2ccc(F)cc2)ccc1-c1ccc(F)cc1` [57-057] as the compound, how does the pIC50 read?
**A.** 8.62

Source: article doi:10.1101/2024.12.13.628427v1 (biorxiv, 2024)
